Laboratory results as given in patent publication US20220089575A1, “FARNESOID X RECEPTOR AGONISTS AND USES THEREOF” (Metacrine, Inc., priority 2017, published 2022).

Biological target: T1, hFXR (Homo sapiens, UniProt Q96RI1)
T1 construct: expressed in transfected cells; host or cells: CV-1 cells
T1 sequence (Q96RI1 1-486): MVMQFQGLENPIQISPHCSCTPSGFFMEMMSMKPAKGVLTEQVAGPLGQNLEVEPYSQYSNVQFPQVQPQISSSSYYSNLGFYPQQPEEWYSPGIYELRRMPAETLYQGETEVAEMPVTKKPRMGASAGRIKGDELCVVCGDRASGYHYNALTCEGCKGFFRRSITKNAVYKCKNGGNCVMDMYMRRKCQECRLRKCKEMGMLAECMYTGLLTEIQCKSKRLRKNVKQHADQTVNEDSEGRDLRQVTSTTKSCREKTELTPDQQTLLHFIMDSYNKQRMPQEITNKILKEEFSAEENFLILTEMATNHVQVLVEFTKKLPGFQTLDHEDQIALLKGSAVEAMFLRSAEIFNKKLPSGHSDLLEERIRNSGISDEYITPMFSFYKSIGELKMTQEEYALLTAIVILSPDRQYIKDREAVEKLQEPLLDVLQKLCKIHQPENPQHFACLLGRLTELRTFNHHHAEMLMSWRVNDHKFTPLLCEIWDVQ
T1 sequence (P19793 1-462 partner): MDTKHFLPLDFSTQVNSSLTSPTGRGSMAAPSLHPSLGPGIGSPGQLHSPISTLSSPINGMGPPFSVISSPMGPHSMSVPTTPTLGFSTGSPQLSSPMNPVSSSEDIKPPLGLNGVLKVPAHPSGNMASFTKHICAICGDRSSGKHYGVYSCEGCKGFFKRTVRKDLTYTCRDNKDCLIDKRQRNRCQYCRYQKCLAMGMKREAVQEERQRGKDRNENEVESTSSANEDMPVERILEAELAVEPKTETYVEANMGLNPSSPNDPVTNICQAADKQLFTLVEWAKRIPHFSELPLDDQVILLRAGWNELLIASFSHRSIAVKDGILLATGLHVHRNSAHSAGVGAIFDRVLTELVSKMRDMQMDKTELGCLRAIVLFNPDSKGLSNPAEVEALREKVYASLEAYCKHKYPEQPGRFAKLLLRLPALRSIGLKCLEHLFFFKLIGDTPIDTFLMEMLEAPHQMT
Experiment: In Vitro FXR Assay (TK): TK-ECRE-luc reporter in transfected CV-1 cells
Format: cell-based
Details: 18 hrs, luminescence, maximum efficacy of <25% of the Fexarmine control classified as '+'
Outline: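 Luciferase luminescence read-out from lysed CV-1 cells transiently co-expressing hFXR and hRXR with a TK-ECRE-luc reporter (pCMX-YFP co-transfected). Compound exposure lasted 18 h at 37 °C, 5% CO2, in medium containing charcoal super-stripped serum.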

Row | Compound | EC50 [nM]
1 | CNC1CN(C(=O)O[C@H]2CC[C@H](C(=O)N(C[C@H]3CC[C@H](c4ccc(OC)c(C)c4)CC3)c3cccc(-c4cnn(C5CC5)c4)c3)CC2)C1 [Compound 7.37] | ≤ 250
2 | COc1ccc([C@H]2CC[C@H](CN(c3cccc(-c4cnn(C5CC5)c4)c3)C(=O)[C@H]3CC[C@H](OC(=O)N4CC(NC(=O)OC(C)(C)C)C4)CC3)CC2)cc1C [Compound 7.38, trans-4-((3-(1-Cyclopropyl-1H-pyrazol-4-yl)phenyl)((trans-4-(4-methoxy-3-methylphenyl)cyclohexyl)methyl)carbamoyl)cyclohexyl 3-((tert-butoxycarbonyl)amino)azetidine-1-carboxylate] | ≤ 250
3 | COc1ccc([C@H]2CC[C@H](CN(c3cccc(-c4cnn(C5CC5)c4)c3)C(=O)[C@H]3CC[C@H](OC(=O)N4CC(N)C4)CC3)CC2)cc1C [Compound 7.39, trans-4-((3-(1-Cyclopropyl-1H-pyrazol-4-yl)phenyl)((trans-4-(4-methoxy-3-methylphenyl)cyclohexyl)methyl)carbamoyl)cyclohexyl 3-aminoazetidine-1-carboxylate] | ≤ 250
4 | COc1ccc([C@H]2CC[C@H](CN(c3cc(-c4cnn(C(C)C)c4)ccn3)C(=O)[C@H]3CC[C@H](OC(=O)N4CC(O)C4)CC3)CC2)nc1C#N [Compound 7.40, trans-4-(((trans-4-(6-Cyano-5-methoxypyridin-2-yl)cyclohexyl)methyl)(4-(1-isopropyl-1H-pyrazol-4-yl)pyridin-2-yl)carbamoyl) cyclohexyl 3-hydroxyazetidine-1-carboxylate] | ≤ 250
5 | COC(=O)CC1CN(C(=O)O[C@H]2CC[C@H](C(=O)N(C[C@H]3CC[C@H](c4ccc(OC)c(C)c4)CC3)c3cccc(-c4cnn(C5CC5)c4)c3)CC2)C1 [Compound 7.41, trans-4-((3-(1-Cyclopropyl-1H-pyrazol-4-yl)phenyl)((trans-4-(4-methoxy-3-methylphenyl)cyclohexyl)methyl)carbamoyl)cyclohexyl 3-(2-methoxy-2-oxoethyl)azetidine-1-carboxylate] | ≤ 250
6 | COc1ccc([C@H]2CC[C@H](CN(c3cccc(-c4cnn(C5CC5)c4)c3)C(=O)[C@H]3CC[C@H](OC(=O)N4CC(CC(=O)O)C4)CC3)CC2)cc1C [Compound 7.42, 2-(1-(((trans-4-((3-(1-Cyclopropyl-1H-pyrazol-4-yl)phenyl)((trans-4-(4-methoxy-3-methylphenyl)cyclohexyl)methyl)carbamoyl)cyclohexyl)oxy)carbonyl)azetidin-3-yl)acetic acid] | ≤ 250
7 | COc1ccc([C@H]2CC[C@H](CN(c3cccc(-c4cnn(C(C)C)c4)c3)C(=O)[C@H]3CC[C@H](OC(=O)N4CC(O)C4)CC3)CC2)nc1C#N [Compound 7.43, trans-4-(((trans-4-(6-Cyano-5-methoxypyridin-2-yl)cyclohexyl)methyl)(3-(1-isopropyl-1H-pyrazol-4-yl)phenyl)carbamoyl)cyclohexyl 3-hydroxyazetidine-1-carboxylate] | ≤ 250
8 | COc1ccc([C@H]2CC[C@H](CN(c3cc(-c4cnn(C(C)C)c4)ccn3)C(=O)[C@H]3CC[C@H](OC(=O)NC(C)C)CC3)CC2)nc1C [Compound 7.44, trans-4-((4-(1-Isopropyl-1H-pyrazol-4-yl)pyridin-2-yl)((trans-4-(5-methoxy-6-methylpyridin-2-yl)cyclohexyl)methyl)carbamoyl)cyclohexyl isopropylcarbamate] | ≤ 250
9 | COc1ccc([C@H]2CC[C@H](CN(c3cc(-c4cnn(C(C)C)c4)ccn3)C(=O)[C@H]3CC[C@H](OC(=O)N(C)C)CC3)CC2)cc1C#N [Compound 7.45, trans-4-(((trans-4-(3-Cyano-4-methoxyphenyl)cyclohexyl)methyl)(4-(1-isopropyl-1H-pyrazol-4-yl)pyridin-2-yl)carbamoyl)cyclohexyl dimethylcarbamate] | ≤ 250
10 | COc1ccc([C@H]2CC[C@H](CN(c3cc(-c4cnn(C(C)C)c4)ccn3)C(=O)[C@H]3CC[C@H](OC(=O)N4CCC4)CC3)CC2)cc1C#N [Compound 7.46, trans-4-(((trans-4-(3-Cyano-4-methoxyphenyl)cyclohexyl)methyl)(4-(1-isopropyl-1H-pyrazol-4-yl)pyridin-2-yl)carbamoyl)cyclohexyl azetidine-1-carboxylate] | ≤ 250
11 | CCC1CN(C(=O)O[C@H]2CC[C@H](C(=O)N(C[C@H]3CC[C@H](c4ccc(OC)c(C#N)c4)CC3)c3cc(-c4cnn(C(C)C)c4)ccn3)CC2)C1 [Compound 7.47, trans-4-(((trans-4-(3-Cyano-4-methoxyphenyl)cyclohexyl)methyl)(4-(1-isopropyl-1H-pyrazol-4-yl)pyridin-2-yl)carbamoyl)cyclohexyl 3-ethylazetidine-1-carboxylate] | ≤ 250
12 | COc1ccc([C@H]2CC[C@H](CN(c3cc(-c4cnn(C(C)C)c4)ccn3)C(=O)[C@H]3CC[C@H](OC(=O)N4CC(OC)C4)CC3)CC2)cc1C#N [Compound 7.48, trans-4-(((trans-4-(3-Cyano-4-methoxyphenyl)cyclohexyl)methyl)(4-(1-isopropyl-1H-pyrazol-4-yl)pyridin-2-yl)carbamoyl)cyclohexyl 3-methoxyazetidine-1-carboxylate] | ≤ 250
13 | COc1ccc([C@H]2CC[C@H](CN(c3cc(-c4cnn(C(C)C)c4)ccn3)C(=O)[C@H]3CC[C@H](OC(=O)N4CC(OC(C)C)C4)CC3)CC2)cc1C#N [Compound 7.49, trans-4-(((trans-4-(3-Cyano-4-methoxyphenyl)cyclohexyl)methyl)(4-(1-isopropyl-1H-pyrazol-4-yl)pyridin-2-yl)carbamoyl)cyclohexyl 3-isopropoxyazetidine-1-carboxylate] | ≤ 250
14 | COc1ccc([C@H]2CC[C@H](CN(c3cc(-c4cnn(C(C)C)c4)ccn3)C(=O)[C@H]3CC[C@H](OC(=O)N4CC(N(C)C)C4)CC3)CC2)cc1C#N [Compound 7.50, trans-4-(((trans-4-(3-Cyano-4-methoxyphenyl)cyclohexyl)methyl)(4-(1-isopropyl-1H-pyrazol-4-yl)pyridin-2-yl)carbamoyl)cyclohexyl 3-(dimethylamino)azetidine-1-carboxylate] | ≤ 250
15 | COc1ccc([C@H]2CC[C@H](CN(c3cc(-c4cnn(C(C)C)c4)ccn3)C(=O)[C@H]3CC[C@H](OC(=O)N4CC(CO)C4)CC3)CC2)cc1C#N [Compound 7.51, trans-4-(((trans-4-(3-Cyano-4-methoxyphenyl)cyclohexyl)methyl)(4-(1-isopropyl-1H-pyrazol-4-yl)pyridin-2-yl)carbamoyl)cyclohexyl 3-(hydroxymethyl)azetidine-1-carboxylate] | ≤ 250
16 | COc1ccc([C@H]2CC[C@H](CN(c3cccc(-c4cnn(C(C)C)c4)c3)C(=O)[C@H]3CC[C@H](OC(=O)N4CC(OC)C4)CC3)CC2)nc1C [Compound 7.52, trans-4-((3-(1-Isopropyl-1H-pyrazol-4-yl)phenyl)((trans-4-(5-methoxy-6-methylpyridin-2-yl)cyclohexyl)methyl)carbamoyl)cyclohexyl 3-methoxyazetidine-1-carboxylate] | ≤ 250
17 | COc1ccc([C@H]2CC[C@H](CN(c3cccc(-c4cnn(C(C)C)c4)c3)C(=O)[C@H]3CC[C@H](OC(=O)N4CC(N(C)C)C4)CC3)CC2)nc1C [Compound 7.53, trans-4-((3-(1-Isopropyl-1H-pyrazol-4-yl)phenyl)((trans-4-(5-methoxy-6-methylpyridin-2-yl)cyclohexyl)methyl)carbamoyl)cyclohexyl 3-(dimethylamino)azetidine-1-carboxylate] | ≤ 250
